According to US8648066B2 (Exelixis, Inc., priority 2009, dated 2014):

Legend:
[1] = biological target: PI3Kα (Homo sapiens, UniProt P42336); assay: PI3K biochemical assay (luciferase-luciferin ATP consumption); settings: 1.5 nM enzyme, 1 μM ATP, 10 μM PIP2; read-out: IC50 for PI3Kα in this assay
Method: PI3Kα activity is measured as the percent of ATP consumed following the kinase reaction using luciferase-luciferin-coupled chemiluminescence. Reactions were conducted in 384-well white, medium binding microtiter plates (Greiner). Kinase reactions were initiated by combining test compounds, ATP, substrate (PIP2), and kinase in a 20 μL volume in a buffer solution. The standard PI3Kalpha assay buffer is composed 50 mM Tris, pH 7.5, 1 mM EGTA, 10 mM MgCl2, 1 mM DTT and 0.03% CHAPS. The standard assay concentrations for enzyme, ATP, and substrate are 1.5 nM, 1 μM, and 10 μM, respectively. The reaction mixture was incubated at ambient temperature for approximately 2 h. Following the kinase reaction, a 10 μL aliquot of luciferase-luciferin mix (Promega Kinase-Glo) was added and the chemiluminescence signal measured using a Victor2 plate reader (Perkin Elmer). Total ATP consumption was limited to 40-60% and IC50 values of control compounds correlate well with literature references. Substituting PI3Kα with PI3Kβ, PI3Kγ, or PI3Kδ, the inhibitory activity of the compounds for the other isoforms of I3K were measured.

[2] = biological target: mTOR/GbL/Raptor (mTORC1) (Homo sapiens, UniProt P42345); assay: mTOR/GbL/Raptor (mTORC1) ELISA assay; format: biochemical; settings: phosphorylation of 4E-BP1; 0.2 nM mTORC1, 10 μM ATP; read-out: IC50 in this assay (mTORC1 ELISA)
Summary of the method: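 ELISA read-out: phospho-4E-BP1 captured on Ni-chelate plates and detected with anti-phospho antibody plus HRP-anti-IgG luminescence. The kinase step ran 120 min at ambient temperature with 0.2 nM human mTORC1, 10 µM ATP, 50 nM His-4E-BP1, 10 mM MnCl2, pH 7.2 HEPES.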

Sequence of PI3Kα (P42336 whole entry, species assumed): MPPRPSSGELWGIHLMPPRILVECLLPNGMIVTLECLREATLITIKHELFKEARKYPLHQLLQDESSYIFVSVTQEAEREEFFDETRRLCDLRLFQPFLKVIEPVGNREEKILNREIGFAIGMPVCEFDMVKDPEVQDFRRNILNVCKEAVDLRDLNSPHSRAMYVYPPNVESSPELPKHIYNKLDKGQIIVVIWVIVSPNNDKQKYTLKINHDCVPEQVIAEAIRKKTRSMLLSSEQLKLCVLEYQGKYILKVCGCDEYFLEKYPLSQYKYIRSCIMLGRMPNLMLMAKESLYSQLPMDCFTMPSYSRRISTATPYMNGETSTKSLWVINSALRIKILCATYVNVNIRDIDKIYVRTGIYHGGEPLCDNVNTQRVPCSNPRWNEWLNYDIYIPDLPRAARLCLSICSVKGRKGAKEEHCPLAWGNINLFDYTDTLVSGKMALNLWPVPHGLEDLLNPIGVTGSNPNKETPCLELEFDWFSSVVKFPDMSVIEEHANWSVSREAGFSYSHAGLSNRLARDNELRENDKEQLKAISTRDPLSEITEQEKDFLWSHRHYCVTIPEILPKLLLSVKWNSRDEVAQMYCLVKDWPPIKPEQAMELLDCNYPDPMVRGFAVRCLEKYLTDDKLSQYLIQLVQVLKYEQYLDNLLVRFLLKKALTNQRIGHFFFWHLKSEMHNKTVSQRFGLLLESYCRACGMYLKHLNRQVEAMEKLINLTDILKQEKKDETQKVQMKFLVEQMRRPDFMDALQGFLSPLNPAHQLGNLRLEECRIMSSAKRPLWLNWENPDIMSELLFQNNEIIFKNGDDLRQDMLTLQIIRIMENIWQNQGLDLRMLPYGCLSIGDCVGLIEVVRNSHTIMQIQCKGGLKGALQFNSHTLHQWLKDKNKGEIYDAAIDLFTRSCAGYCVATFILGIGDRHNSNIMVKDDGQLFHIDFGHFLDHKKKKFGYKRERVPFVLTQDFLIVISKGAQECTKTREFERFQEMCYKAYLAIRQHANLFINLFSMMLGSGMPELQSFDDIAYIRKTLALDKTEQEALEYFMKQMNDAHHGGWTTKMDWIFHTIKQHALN
Sequence of PI3Kα (P27986 whole entry partner, species assumed): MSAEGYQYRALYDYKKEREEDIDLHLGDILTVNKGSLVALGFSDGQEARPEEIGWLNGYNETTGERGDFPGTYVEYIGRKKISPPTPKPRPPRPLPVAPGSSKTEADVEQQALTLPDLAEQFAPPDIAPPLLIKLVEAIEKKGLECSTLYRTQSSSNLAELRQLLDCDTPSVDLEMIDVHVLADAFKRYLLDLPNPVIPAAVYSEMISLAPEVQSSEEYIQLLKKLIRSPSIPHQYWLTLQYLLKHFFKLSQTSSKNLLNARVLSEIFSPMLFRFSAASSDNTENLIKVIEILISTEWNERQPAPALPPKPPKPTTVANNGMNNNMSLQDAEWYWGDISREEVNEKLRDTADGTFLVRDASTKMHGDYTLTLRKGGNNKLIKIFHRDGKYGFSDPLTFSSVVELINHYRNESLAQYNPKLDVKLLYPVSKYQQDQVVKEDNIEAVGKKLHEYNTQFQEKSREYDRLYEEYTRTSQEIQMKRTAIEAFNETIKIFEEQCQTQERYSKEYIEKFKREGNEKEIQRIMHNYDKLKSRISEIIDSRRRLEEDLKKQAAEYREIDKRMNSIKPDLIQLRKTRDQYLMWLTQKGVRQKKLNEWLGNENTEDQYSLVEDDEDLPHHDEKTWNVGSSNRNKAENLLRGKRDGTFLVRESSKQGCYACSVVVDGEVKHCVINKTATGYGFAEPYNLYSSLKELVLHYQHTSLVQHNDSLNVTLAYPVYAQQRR

Row | SMILES | IC50 [1] [nM] | IC50 [2] [nM]
1 | c1ccc2ncc(-c3ccc4c(c3)CN(c3ccnc5ccccc35)CCO4)cc2c1 [Example 205, 7-quinolin-3-yl-4-quinolin-4-yl-2,3,4,5-tetrahydro-1,4-benzoxazepine] | 1000 to 2000 | 1000 to 2000
2 | COC(=O)Nc1cc(-c2ccc3c(c2)CN(c2ncnc4c2CC(C)(C)CC4)CCO3)cnc1Cl [Example 581, methyl {2-chloro-5-[4-(6,6-dimethyl-5,6,7,8-tetrahydroquinazolin-4-yl)-2,3,4,5-tetrahydro-1,4-benzoxazepin-7-yl]pyridin-3-yl}carbamate] | ≥ 2000 | 1000 to 2000
3 | c1ccc2c(N3CCOc4ccc(-c5ccc6nc(C7CCCC7)[nH]c6c5)cc4C3)ccnc2c1 [Example 198, 7-(2-cyclopentyl-1H-benzimidazol-6-yl)-4-quinolin-4-yl-2,3,4,5-tetrahydro-1,4-benzoxazepine] | ≥ 2000 | ≥ 2000
4 | COc1cccc(-c2ccc3c(c2)CN(c2nc(CN(C)C)nc4c2CC(C)(C)CC4)CCO3)c1 [Example 328, 1-(6,6-dimethyl-4-{7-[3-(methyloxy)phenyl]-2,3-dihydro-1,4-benzoxazepin-4(5H)-yl]-5,6,7,8-tetrahydroquinazolin-2-yl)-N,N-dimethylmethanamine] | 1000 to 2000 | ≥ 2000
5 | C[C@H](NC(=O)OCc1ccccc1)c1nc2ncc(-c3ccc4c(c3)CN(c3ncnc5c3CC(C)(C)CC5)CCO4)cc2[nH]1 [Example 647, phenylmethyl [(1S)-1-{6-[4-(6,6-dimethyl-5,6,7,8-tetrahydroquinazolin-4-yl)-2,3,4,5-tetrahydro-1,4-benzoxazepin-7-yl]-1H-imidazo[4,5-b]pyridin-2-yl}ethyl]carbamate] | ≥ 2000 | 250 to 1000
6 | Cc1ncc(S(=O)(=O)N(C)C)c(N2CCOc3ccc(-c4cnc5nc(C)[nH]c5c4)cc3C2)n1 [Example 611, N,N,2-trimethyl-4-[7-(2-methyl-1H-imidazo[4,5-b]pyridin-6-yl)-2,3-dihydro-1,4-benzoxazepin-4(5H)-yl]pyrimidine-5-sulfonamide] | 1000 to 2000 | 250 to 1000
7 | CC1(C)CCc2ncnc(N3CCOc4ccc(-c5cnc6c(c5)OCC(=O)N6)cc4C3)c2C1 [Example 572, 7-[4-(6,6-dimethyl-5,6,7,8-tetrahydroquinazolin-4-yl)-2,3,4,5-tetrahydro-1,4-benzoxazepin-7-yl]-2H-pyrido[3,2-b][1,4]oxazin-3(4H)-one] | 1000 to 2000 | ≥ 2000
8 | Cc1nc2ncc(-c3ccc4c(c3)CN(c3ncnc5c3C(C(F)(F)F)CCC5)CCO4)cc2[nH]1 (stereo not shown) [Example 562, 7-(2-methyl-1H-imidazo[4,5-b]pyridin-6-yl)-4-[5-(trifluoromethyl)-5,6,7,8-tetrahydroquinazolin-4-yl]-2,3,4,5-tetrahydro-1,4-benzoxazepine] | 1000 to 2000 | 250 to 1000
9 | Cc1c(N2CCOc3ccc(-c4cnc5nc(C6CC6)[nH]c5c4)cc3C2)ncnc1N(C)[C@H](C)c1ccccc1 [Example 535, 6-[7-(2-cyclopropyl-1H-imidazo[4,5-b]pyridin-6-yl)-2,3-dihydro-1,4-benzoxazepin-4(5H)-yl]-N,5-dimethyl-N-[(1R)-1-phenylethyl]pyrimidin-4-amine] | 1000 to 2000 | 250 to 1000
10 | CCn1cnc2cc(-c3ccc4c(c3)CN(c3ccnc5ccccc35)CCO4)ccc21 [Example 127, 7-(1-ethyl-1H-benzimidazol-5-yl)-4-quinolin-4-yl-2,3,4,5-tetrahydro-1,4-benzoxazepine] | ≥ 2000 | 250 to 1000
11 | Cc1nc2c(-c3ccc4c(c3)CN(c3ncnc5c3CC(C)(C)CC5)CCO4)cncc2[nH]1 [Example 475, 4-(6,6-dimethyl-5,6,7,8-tetrahydroquinazolin-4-yl)-7-(2-methyl-3H-imidazo[4,5-c]pyridin-7-yl)-2,3,4,5-tetrahydro-1,4-benzoxazepine] | ≥ 2000 | ≥ 2000
12 | Cc1nccc(N2CCOc3ccc(-c4cnc5nc(C)[nH]c5c4)cc3C2)n1 [Example 85, 7-(2-methyl-1H-imidazo[4,5-b]pyridin-6-yl)-4-(2-methylpyrimidin-4-yl)-2,3,4,5-tetrahydro-1,4-benzoxazepine] | 1000 to 2000 | 50 to 250
13 | c1ccc2sc(-c3ccc4c(c3)CN(c3ccnc5ccccc35)CCO4)cc2c1 [Example 206, 7-(1-benzothien-2-yl)-4-quinolin-4-yl-2,3,4,5-tetrahydro-1,4-benzoxazepine] | ≥ 2000 | 1000 to 2000
14 | Cc1cc(N2CCOc3ccc(-c4ccc5[nH]cnc5c4)cc3C2)nc(N)n1 [Example 688, 4-[7-(1H-benzimidazol-5-yl)-2,3-dihydro-1,4-benzoxazepin-4(5H)-yl]-6-methylpyrimidin-2-amine] | 1000 to 2000 | 250 to 1000
15 | COc1ccc(-c2ccc3c(c2)CN(c2nc(CN(C)C)nc4c2CC(C)(C)CC4)CCO3)cc1 [Example 329, 1-(6,6-dimethyl-4-{7-[4-(methyloxy)phenyl]-2,3-dihydro-1,4-benzoxazepin-4(5H)-yl}-5,6,7,8-tetrahydroquinazolin-2-yl)-N,N-dimethylmethanamine] | 1000 to 2000 | ≥ 2000
16 | COc1ccc2c(N3CCOc4ccc(-c5ccc6ncsc6c5)cc4C3)nc(C)nc2c1 [Example 294, 7-(1,3-benzothiazol-6-yl)-4-[2-methyl-7-(methyloxy)quinazolin-4-yl]-2,3,4,5-tetrahydro-1,4-benzoxazepine] | 1000 to 2000 | ≥ 2000

Further lines, results first:

Row | IC50 [1] [nM] | IC50 [2] [nM] | SMILES
17 | 1000 to 2000 | 250 to 1000 | Cc1nc2ccc(-c3ccc4c(c3)CN(c3ncnc(C)c3CC(C)C)CCO4)cc2[nH]1 [Example 67, 7-(2-methyl-1H-benzimidazol-6-yl)-4-[6-methyl-5-(2-methylpropyl)pyrimidin-4-yl]-2,3,4,5-tetrahydro-1,4-benzoxazepine]
18 | 1000 to 2000 | 250 to 1000 | Cc1nc2ccc(-c3ccc4c(c3)CN(c3ncnc5c3CSC5)CCO4)cc2[nH]1 [Example 75, 4-(5,7-dihydrothieno[3,4-d]pyrimidin-4-yl)-7-(2-methyl-1H-benzimidazol-6-yl)-2,3,4,5-tetrahydro-1,4-benzoxazepine]
19 | ≥ 2000 | 250 to 1000 | OCc1ncc(-c2ccc(-c3ccc4c(c3)CN(c3ncnc5cccnc35)CCO4)cc2)[nH]1 [Example 212, {5-[4-(4-pyrido[3,2-d]pyrimidin-4-yl-2,3,4,5-tetrahydro-1,4-benzoxazepin-7-yl)phenyl]-1H-imidazol-2-yl}methanol]
20 | ≥ 2000 | 1000 to 2000 | Cc1ccc(N2Cc3ncnc(N4CCOc5ccc(-c6ccc7nc(C)[nH]c7c6)cc5C4)c3C2)cc1 [Example 88, 7-(2-methyl-1H-benzimidazol-6-yl)-4-[6-(4-methylphenyl)-6,7-dihydro-5H-pyrrolo[3,4-d]pyrimidin-4-yl]-2,3,4,5-tetrahydro-1,4-benzoxazepine]
21 | 1000 to 2000 | ≥ 2000 | CCNc1nc2ccc(-c3ccc4c(c3)CN(c3nc(C)nc5cc(OCC)ccc35)CCO4)cc2[nH]1 [Example 288, N-ethyl-6-{4-[7-(ethyloxy)-2-methylquinazolin-4-yl]-2,3,4,5-tetrahydro-1,4-benzoxazepin-7-yl}-1H-benzimidazol-2-amine]
22 | ≥ 2000 | 250 to 1000 | Cc1nc2ccc(-c3ccc4c(c3)CN(c3ncnc5c3CN(C3CC3)C5)CCO4)cc2[nH]1 [Example 87, 4-(6-cyclopropyl-6,7-dihydro-5H-pyrrolo[3,4-d]pyrimidin-4-yl)-7-(2-methyl-1H-benzimidazol-6-yl)-2,3,4,5-tetrahydro-1,4-benzoxazepine]
23 | 1000 to 2000 | 1000 to 2000 | CSc1nc2c(c(N3CCOc4ccc(-c5ccc6nc(C)[nH]c6c5)cc4C3)n1)CC(C)C2 (stereo not shown) [Example 71, 7-(2-methyl-1H-benzimidazol-6-yl)-4-[6-methyl-2-(methylthio)-6,7-dihydro-5H-cyclopenta[d]pyrimidin-4-yl]-2,3,4,5-tetrahydro-1,4-benzoxazepine]
24 | ≥ 2000 | 250 to 1000 | Cc1nc2ccc(-c3ccc4c(c3)CN(c3nc(SCc5ccccc5)nc5c3CCC5)CCO4)cc2[nH]1 [Example 53, 7-(2-methyl-1H-benzimidazol-6-yl)-4-{2-[(phenylmethyl)thio]-6,7-dihydro-5H-cyclopenta[d]pyrimidin-4-yl}-2,3,4,5-tetrahydro-1,4-benzoxazepine]
25 | 1000 to 2000 | 250 to 1000 | Cc1nc2ccc(-c3ccc4c(c3)CN(c3ncnc(Cc5ccccc5)c3C)CCO4)cc2[nH]1 [Example 41, 7-(2-methyl-1H-benzimidazol-6-yl)-4-[5-methyl-6-(phenylmethyl)pyrimidin-4-yl]-2,3,4,5-tetrahydro-1,4-benzoxazepine]
26 | ≥ 2000 | ≥ 2000 | Cc1nc2ccc(-c3ccc4c(c3)CN(c3ccccn3)CCO4)cc2[nH]1 [Example 104, 7-(2-methyl-1H-benzimidazol-6-yl)-4-pyridin-2-yl-2,3,4,5-tetrahydro-1,4-benzoxazepine]
